The source of these data is US20240269158A1, “THERAPEUTIC AGENTS AND METHODS FOR TREATMENT OF BARTONELLOSIS” (THE ADMINISTRATORS OF THE TULANE EDUCATIONAL FUND, priority 2021, published 2024).

For test [1], the system named is B. vinsonii. Description: MIC assay in liquid culture media (OD600). The settings on record: Grace's insect media, read-out: MIC. The format is cell-based, B. vinsonii subsp. berkhoffii. As to the method: (§1) The B. henselae strains used were San Antonio 2, 267HO04, a human clinical isolate and B. vinsonii subsp. berkhoffii. Both the bacteria were initially grown on tryptic soy agar (TSA) supplemented with 5% defibrinated sheep blood plates that were either pre-made (Remel, R01198) or homemade, in a humidified atmosphere at 37° C. with 5% CO2 for 7 days. For the preparation of liquid cultures, an individual well-grown colony from the plate was resuspended in 15 ml Falcon tubes containing 3 mL of either Schneider's insect media supplemented with 10% FBS, or Grace's insect media (Gibco, 11605-094) supplemented with 10% FBS, or BAPGM serum-free liquid media. The cultures grew for 7 more days in the atmosphere as above without shaking. The number of viable bacteria was determined by either plating serial dilutions of the culture on plates for CFU or by live/dead staining. Before every experiment, bacteria were mixed well and passed through 22-gauge needle to break large clumps of bacteria.
(§2) Optical density (OD) of 7-day old bacterial liquid culture that was grown from an individual colony was measured using a spectrophotometer (Bio-Rad, SmartSpec 300, 170-2501). Bacterial culture was then diluted down to an OD of 0.1 ? 3×10^8 cfu/ml with the respective media.
(§3) To determine the MIC of the antibiotics and for the visualization of the bacterial growth, a clear 96-well plate was used. Into each well of a 96-well plate, 50 μl of the 0.1 OD bacterial culture and 50 μl of the liquid media containing antibiotics were added to the wells bringing the total volume to 100 μl of 0.05 OD bacteria (CFU ? 1.5×10^7) in each well. Wells containing only bacteria with solvent used in the dilution of the antibiotics served as a positive control to verify the growth of bacteria. As a negative control, wells containing only media and solvents were used. Each concentration of diluted antibiotic was run in 4 replicates to minimize the error rate. The 96-well plate was covered with the lid and incubated at 37° C. with 5% CO2. OD of the culture was read after 48 hrs and 96 hrs using a hybrid multi-mode microplate reader (Biotek, Synergy H4 hybrid reader) at OD600. The assay was repeated three times.
(§4) Therapeutic agent stocks were prepared in the following solvents: 10 mg/ml of ceftriaxone (USP), doxycycline (Fisher scientific, D9891-1G), gentamicin (Fisher scientific, 1405-41-0), ampicillin (Fisher scientific, 69-52-3) and azlocillin (Flightpath) in sterile cell culture grade water, whereas 5 mg/ml of azithromycin (Sigma, PZ0007-5MG) was dissolved in sterile cell culture grade DMSO. Antibiotics were then aliquoted and stored at either −80° C. or −20° C. until further use. On the day of assay, these stock concentrations were diluted to 1 mg/ml and 100 μg/ml in the respected bacterial culture media for MIC and cell-free, liquid culture MBC assays. For the DH82 cell-based MBC assay, antibiotics were diluted in EMEM media supplemented with 15% heat inactivated FBS.
(§5) The determination of susceptibility to therapeutic agents was performed in liquid culture media. Six different therapeutic agents were tested with multiple different concentrations against B. henselae and B. vinsonii. Therapeutic agent concentrations tested were as follows: Ceftriaxone 0.001, 0.01, 0.1, 0.3, 0.5, 1, 2, and 5 μg/ml; doxycycline 0.001, 0.01, 0.1, 0.3, 0.5, 1, 2, 5, and 10 μg/ml, gentamicin: 0.01, 0.1, 0.3, 0.5, 1, 2, 4, 8, and 16 μg/ml, and azithromycin: 0.001, 0.005, 0.02, 0.1, 0.3, 0.5, 1, 2, 5, and 10 μg/ml, were tested based on previous antibiotic susceptibility studies. The following azlocillin dilutions were included: 0.001, 0.005, 0.01, 0.02, 0.5, 1, 2, and 5 μg/ml. The ampicillin dilutions included were as follows: 0.001, 0.005, 0.01, 0.02, 0.5, 1, 2, 4, and 8 μg/ml. Both the species of Bartonella were susceptible to all the antibiotics that were used in BAPGM and Grace's culture liquid mediums. […]

For test [2], the system named is B. vinsonii. Kind of test: Cell-free, liquid culture MBC assay. The format is cell-based, B. vinsonii subsp. berkhoffii. The settings on record: 96 hrs, plated on blood agar, read-out: MBC. How it is done:
as §1
(§6) Briefly, the bacterial culture that was treated with therapeutic agents for 96 hrs was collected into a 1.5 ml microcentrifuge tubes and centrifuged at 7000 rpm for 10 min. The supernatant was removed, and the bacterial pellet was washed with 1×PBS twice. The bacterial pellet was then resuspended in 100 μL of 1×PBS, plated onto blood agar plates and incubated at 37° C. with 5% CO2 for about 14 days. This assay was repeated three times with all the 6 different antibiotics (azlocillin, azithromycin, ceftriaxone, doxycycline, gentamicin and ampicillin) and at different concentrations.
as §4
(§7) For this assay, both B. henselae and B. vinsonii were grown in Grace's insect media and were tested against all of the 6 antibiotics (ceftriaxone, doxycycline, gentamicin, azithromycin, azlocillin, ampicillin). […] However, ceftriaxone, gentamicin, azithromycin, and azlocillin were all bactericidal and completely eliminated the growth at concentrations below 10 µg/ml. Table 2 provides comparison of MBCs for B. henselae and B. vinsonii strains in cell-free liquid culture medium determined by incubating the bacteria with antibiotics in a 96-well plate and plating on tryptic soy agar supplemented with 5% sheep blood. Additionally, MBC for B. henselae determined by DH82 cell-based assay (right column) is provided.

In test [3] the test system is B. henselae. Kind of test: Cell-free, liquid culture MBC assay. The settings on record: Bartonella henselae, 96 hrs, plated on blood agar, read-out: MBC. The format is cell-based, Bartonella henselae. How it is done: as §1, §6, §4
For this assay, both B. henselae and B. vinsonii were grown in Grace's insect media and were tested against all of the 6 antibiotics (ceftriaxone, doxycycline, gentamicin, azithromycin, azlocillin, ampicillin).

For test [4], the system named is intracellular B. henselae in DH82 cells. Description: DH82 cell-based MBC assay (coculture). The settings on record: Bartonella henselae; B. henselae; DH82 cell-based assay; 96 hours; read-out: MBC. Also on record: species or system Bartonella henselae (canine DH82 cells). How it is done:
DH82 are a canine cell line having a macrophage-like morphology. Cells were initially cultured in T75-Flasks (Corning, 430641U) until confluency was reached and were split at a ratio of 1:4 for every 2-3 days. Cells were then seeded into either 24-well cell culture plates (Corning, 3526) for coculture assay or 8-well chamber slides (Millipore #PEGGS0816) for immunofluorescence assays. A total of 50,000 cells were seeded into each well of a 24-well plate or per chamber of an 8-well chamber slide with EMEM with 15% FBS and incubated for 24-48 hours before infections.
as §4
Bacteria (B. henselae) that were grown in Grace's insect media, were centrifuged at 7000 rpm for 10 min. The supernatant was removed and washed with 1×PBS for three times. After the washes, pellet was resuspended in EMEM media supplemented with 15% heat inactivated FBS. This bacterial suspension was then added to DH82 cells at a multiplicity of infection (MOI) of 1:50 and incubated for 2 hours. After 2 hours, unbound bacteria were removed by washing the cells with only EMEM media 3 times each 15 min wash. Cells were then incubated with EMEM+15% FBS media at 37° C. with 5% CO2 for 48 hours.
After 48 hrs of incubation, the media was removed from the cells and the therapeutic agents that were diluted in EMEM+15% FBS was added. Each therapeutic agent was diluted at 11 different concentrations (16, 8, 4, 2, 1, 0.5, 0.25, 0.125, 0.062, 0.031, 0.0156 μg/ml), as described above and incubated for 96 hours. […] The bactericidal activity of the therapeutic agents were then evaluated by plating the lysed cells on blood agar plates. Briefly, infected DH82 cells were initially washed for 30 min twice to remove the antibiotics that were added. Later, cells were osmotically lysed by adding 1 ml of sterile ice-cold distilled water and incubated for 5 min on ice. The lysed cells were then plated onto blood agar plates and incubated at 37° C. with 5% CO2 for about 10 days to evaluate the growth of viable B. henselae. This experiment was conducted in duplicates and repeated twice with all 6 antibiotics including 11 different concentrations. The untreated infected cells were used as a positive control and untreated uninfected cells served as a negative control. The CFU counts are presented as average±standard deviation.
To evaluate the bactericidal activity and to determine if these antibiotics could penetrate the eukaryotic […], a new DH82 cell-based coculture system was utilized. […] Uninfected cells stained with primary rabbit B. henselaehyperimmunized polyclonal (primary) and goat anti-rabbit IgG Alexa fluor 594 (secondary) antibodies were used as a negative control. As an isotype control, DH82 cells infected with B. henselae and incubated with primary rabbit IgG were used.

The test system of test [5] is B. henselae and B. vinsonii. Description: Cell-free MBC assay, summary over both species. The format is cell-based, Bartonella. The settings on record: both species; Grace's insect media. How it is done: as §6, §7
In test [6] the test system is B. henselae. Kind of test: MIC assay in liquid culture media (OD600). The settings on record: Bartonella henselae, read-out: MIC. The format is cell-based, Bartonella henselae. How it is done:
as §1, §2, §3, §4, §5

Test [7] deals with B. henselae. The settings on record: cited from earlier work.
Test [8] deals with B. henselae. The settings on record: E-test methodology or agar dilution method; cited from earlier work. For orientation: Agar dilution tests growth on a series of plates holding different concentrations.

Broadly, the MIC is the least concentration at which growth counts as inhibited. As a reminder, the MBC is the lowest tested concentration that kills the bacteria rather than only halting them.

Like-named read-outs stand apart in the source and are kept apart here.

Consider `CC1(C)S[C@@H]2[C@H](NC(=O)[C@H](N)c3ccccc3)C(=O)N2[C@H]1C(=O)O` [Ampicillin, ampicillin], for which the minimum inhibitory concentration (MIC) in test [1] lay within 0.01 to 0.02 µg/mL; in test [6] (Grace's insect media), 0.02 to 0.1 µg/mL. For the same compound, the MBC was over 8 µg/mL in test [2], over 8 µg/mL in test [3] and over 16 µg/mL in test [4]. Besides, the “concentration that did not completely inhibit the growth of bacteria” value in test [5] is over 8 µg/mL.

Take `C[C@H]1c2cccc(O)c2C(=O)C2=C(O)[C@]3(O)C(=O)C(C(N)=O)=C(O)[C@@H](N(C)C)[C@@H]3[C@@H](O)[C@@H]21` [Doxycycline, doxycycline]: the MIC is 0.01 to 0.1 µg/mL in test [1], 0.01 to 0.1 µg/mL in test [6] (BAPGM), 0.01 to 0.1 µg/mL in test [6] (Grace's insect media) and over 0.3 µg/mL in test [6] (Schneider's insect medium). Moreover, the MBC in test [2] is over 10 µg/mL; in test [3], over 10 µg/mL; in test [4] it was over 16 µg/mL. Also, the “concentration that did not completely inhibit the growth of bacteria” value in test [5] was over 10 µg/mL.

Take `O=C(O)c1cn(C2CC2)c2cc(N3CCNCC3)c(F)cc2c1=O` [ciprofloxacin]: in test [7], the “activity against growing bacterial culture” value is listed as “effective” and the “activity against stationary phase B. henselae” value is “very poor activity”.

With `CC[C@H]1OC(=O)[C@H](C)[C@@H](O[C@H]2C[C@@](C)(OC)[C@@H](O)[C@H](C)O2)[C@H](C)[C@@H](O[C@@H]2O[C@H](C)C[C@H](N(C)C)[C@H]2O)[C@](C)(O)C[C@@H](C)C(=O)[C@H](C)[C@@H](O)[C@]1(C)O` [crythromycin], in test [7], the “activity against growing bacterial culture” value is reported as “effective” and the “activity against stationary phase B. henselae” value was “very poor activity”.

`CO[C@H]1/C=C/O[C@@]2(C)Oc3c(C)c(O)c4c(O)c(c(/C=N/N5CCN(C)CC5)c(O)c4c3C2=O)NC(=O)/C(C)=C\C=C\[C@H](C)[C@H](O)[C@@H](C)[C@@H](O)[C@@H](C)[C@H](OC(C)=O)[C@@H]1C` [rifampin]: in test [7], the “activity against growing bacterial culture” value is given as “effective” and the “activity against stationary phase B. henselae” value is given as “very poor activity”. The “inhibition in the growth of B. henselae in vitro” value in test [8] is “Inhibition in the growth”.
